In ChEMBL document CHEMBL3784966, “Approaching the active conformation of 1,3-diaminopyrimidine based covalent inhibitors of Bruton's tyrosine kinase for treatment of Rheumatoid arthritis” (Bioorg Med Chem Lett, 2016):

Tests used:
[1] = Antiproliferative activity against B cells (unknown origin); format: functional, cell-based; settings: B-cell
[2] = Oral bioavailability in Sprague-Dawley rat at 2 mg/kg; format: ADME, organism-based; settings: in vivo
[3] = target: Tyrosine-protein kinase BTK (Homo sapiens, UniProt Q06187); assay: Inhibition of BTK (unknown origin)
Sequence of Tyrosine-protein kinase BTK (Q06187 whole entry): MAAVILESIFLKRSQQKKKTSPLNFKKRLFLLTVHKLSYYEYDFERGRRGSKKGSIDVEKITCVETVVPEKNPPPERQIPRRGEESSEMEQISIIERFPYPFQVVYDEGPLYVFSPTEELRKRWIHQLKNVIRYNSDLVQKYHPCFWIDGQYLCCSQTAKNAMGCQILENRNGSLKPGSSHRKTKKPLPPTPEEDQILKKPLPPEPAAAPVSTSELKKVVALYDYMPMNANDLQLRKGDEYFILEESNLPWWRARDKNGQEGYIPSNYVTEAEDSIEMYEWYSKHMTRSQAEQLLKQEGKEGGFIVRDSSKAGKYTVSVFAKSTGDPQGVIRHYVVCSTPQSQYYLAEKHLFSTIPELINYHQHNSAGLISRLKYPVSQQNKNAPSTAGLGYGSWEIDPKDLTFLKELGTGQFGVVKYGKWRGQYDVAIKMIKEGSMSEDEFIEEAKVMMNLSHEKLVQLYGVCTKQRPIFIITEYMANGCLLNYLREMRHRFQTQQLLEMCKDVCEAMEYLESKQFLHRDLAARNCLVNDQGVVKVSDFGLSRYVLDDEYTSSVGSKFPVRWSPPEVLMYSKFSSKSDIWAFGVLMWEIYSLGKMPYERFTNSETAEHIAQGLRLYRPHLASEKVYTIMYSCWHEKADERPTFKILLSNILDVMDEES

[4] = Plasma clearance in Sprague-Dawley rat at 2 mg/kg, iv; format: ADME, organism-based
[5] = AUC(0 to t) in Sprague-Dawley rat at 2 mg/kg, po; format: ADME, organism-based; settings: in vivo
[6] = Half life in Sprague-Dawley rat at 2 mg/kg, po; format: ADME, organism-based; settings: in vivo
[7] = Cmax in Sprague-Dawley rat at 2 mg/kg, po; format: ADME, organism-based; parameters: dose 2 mg/kg, route oral; settings: in vivo
[8] = Metabolic stability in human plasma assessed as remaining compound at 1 uM after 4 hrs by LC-MS/MS analysis; format: ADME, cell-free; settings: read-out: Stability
[9] = Metabolic stability in Sprague-Dawley rat plasma assessed as remaining compound at 1 uM after 4 hrs by LC-MS/MS analysis; format: ADME, cell-free; settings: read-out: Stability
[10] = Metabolic stability in Beagle dog plasma assessed as remaining compound at 1 uM after 4 hrs by LC-MS/MS analysis; format: ADME, cell-free, Canis lupus familiaris; settings: read-out: Stability

Row | SMILES | IC50 [1] [nM] | IC50 [3] [nM] | also measured
1 | C=CC(=O)Nc1cccc(-n2c(=O)n(C)c3cnc(Nc4ccc(Oc5ccnc(C(=O)NC)c5)cc4)nc32)c1 | 13.7 | 13 | bioavailability [2]: 9%; clearance [4]: 30 mL/min/kg; AUC(0-t) [5]: 100 ng·h/mL; half-life [6]: 2.4 h; Cmax [7]: 107 ng/mL
2 | C=CC(=O)Nc1cccc(-n2c(=O)n(C3CCOCC3)c3cnc(Nc4ccc(OC)nc4)nc32)c1 | – | 318 | –
3 | C=CC(=O)Nc1cccc(Nc2nc(Nc3ccc(OCCOC)cc3)ncc2S(C)(=O)=O)c1 | – | 31.2 | –
4 | C=CC(=O)Nc1cccc(-n2c(=O)n(C)c3cnc(Nc4ccc(OCCOC)cc4)nc32)c1 | 6.84 | 4.11 | remaining at 4 h, 1 µM [8]: 42.2%; bioavailability [2]: 20%; clearance [4]: 253 mL/min/kg; AUC(0-t) [5]: 27 ng·h/mL; remaining at 4 h, 1 µM [9]: 27.5%; half-life [6]: 1.4 h; remaining at 4 h, 1 µM [10]: 16.2%; Cmax [7]: 41 ng/mL
5 | C=CC(=O)Nc1cccc(-n2c(=O)n(CC3CC3)c3cnc(Nc4ccc(N5CCOCC5)cc4)nc32)c1 | 70.6 | 31 | remaining at 4 h, 1 µM [8]: 40.8%; remaining at 4 h, 1 µM [9]: 80.5%; remaining at 4 h, 1 µM [10]: 93.4%
6 | C=CC(=O)Nc1cccc(-n2c(=O)n(CCOC)c3cnc(Nc4ccc(OC)nc4)nc32)c1 | – | 265 | –
7 | C=CC(=O)Nc1cccc(Nc2nc(Nc3ccc(OCCOC)cc3)ncc2SC)c1 | 30.6 | 6.6 | –
8 | C=CC(=O)Nc1cccc(Nc2nc(Nc3ccc(N4CCOCC4)cc3)ncc2SC)c1 | 64 | 1.08 | –
9 | C=CC(=O)Nc1cccc(-n2c(=O)n(CC3CC3)c3cnc(Nc4ccc(OC)nc4)nc32)c1 | – | 222 | –
10 | C=CC(=O)Nc1cccc(-n2c(=O)n(CC3CC3)c3cnc(Nc4ccc(N(C)C)nc4)nc32)c1 | 818 | 30.6 | –
11 | C=CC(=O)Nc1cccc(Nc2nc(Nc3ccc(N4CCOCC4)cc3)ncc2[S+](C)[O-])c1 (racemic) | 3.55 | 0.903 | –
12 | C=CC(=O)Nc1cccc(Nc2nc(Nc3ccc(OCCOC)cc3)ncc2[S+](C)[O-])c1 (racemic) | 5.85 | 3.76 | remaining at 4 h, 1 µM [8]: 86.7%; bioavailability [2]: 23%; clearance [4]: 108 mL/min/kg; AUC(0-t) [5]: 73 ng·h/mL; remaining at 4 h, 1 µM [9]: 90.7%; half-life [6]: 1.3 h; remaining at 4 h, 1 µM [10]: 94.3%; Cmax [7]: 55 ng/mL
13 | C=CC(=O)Nc1cccc(Nc2nc(Nc3ccc(N(C)C)nc3)ncc2[S+](C)[O-])c1 (racemic) | 14.9 | 1.48 | –
14 | C=CC(=O)Nc1cccc(Nc2nc(Nc3ccc(Oc4ccnc(C(=O)NC)c4)cc3)ncc2[S+](C)[O-])c1 (racemic) | 19.4 | 5.65 | –
15 | C=CC(=O)Nc1cccc(Nc2nc(Nc3ccc(OCCOC)cc3)ncc2F)c1 [SPEBRUTINIB] | 3.28 | – | –
